In ChEMBL document CHEMBL1154592, “Triazine and pyrimidine based ROCK inhibitors with efficacy in spontaneous hypertensive rat model” (Bioorg Med Chem Lett, 2009):
pIC50: −log10 of the molar value. Active and inactive are the calls of the source. No cut-off for these calls is given here.

Tests used:
[1] = biological target: Rho-associated protein kinase 1 (Homo sapiens, UniProt Q13464); test: Inhibition of ROCK1 by IMAP assay
[2] = tested on: Rattus norvegicus; test: Decrease in mean arterial blood pressure in spontaneous hypertensive rat model at 30 mg/kg, sc; type: functional, organism-based; set-up: dose 30 mg/kg; conditions: Artery
[3] = biological target: Casein kinase I isoform delta (Homo sapiens) (UniProt P48730); test: Inhibition of CK1delta at 2 uM
[4] = biological target: Serine/threonine-protein kinase Chk1 (Homo sapiens) (UniProt O14757); test: Inhibition of CHK1 at 2 uM
[5] = biological target: Tyrosine-protein kinase CSK (Homo sapiens) (UniProt P41240); test: Inhibition of CSK at 2 uM
[6] = biological target: Serine/threonine-protein kinase STK11 (Homo sapiens) (UniProt Q15831); test: Inhibition of LKB1 at 2 uM
[7] = biological target: Tyrosine-protein kinase ZAP-70 (Homo sapiens) (UniProt P43403); test: Inhibition of Zap70 at 2 uM
[8] = biological target: MAP kinase-activated protein kinase 2 (Homo sapiens) (UniProt P49137); test: Inhibition of MAPK2 at 2 uM
[9] = biological target: Aurora kinase A (Homo sapiens) (UniProt O14965); test: Inhibition of AuroraA at 2 uM
[10] = biological target: Epidermal growth factor receptor (Homo sapiens) (UniProt P00533); test: Inhibition of EGFR at 2 uM
[11] = biological target: Glycogen synthase kinase-3 beta (Homo sapiens) (UniProt P49841); test: Inhibition of GSK3-beta at 2 uM
[12] = Inhibition of MAPK at 2 uM
[13] = biological target: Cyclin-dependent kinase 2 (Homo sapiens) (UniProt P24941); test: Inhibition of CDK2 at 2 uM
[14] = biological target: Serine/threonine-protein kinase PAK 2 (Homo sapiens) (UniProt Q13177); test: Inhibition of PAK2 at 2 uM
[15] = biological target: BDNF/NT-3 growth factors receptor (Homo sapiens) (UniProt Q16620); test: Inhibition of TRKbeta at 2 uM
[16] = biological target: Tyrosine-protein kinase Lck (Homo sapiens) (UniProt P06239); test: Inhibition of LCK at 2 uM
[17] = biological target: Ribosomal protein S6 kinase alpha-3 (Homo sapiens) (UniProt P51812); test: Inhibition of Rsk2 at 2 uM
[18] = biological target: Dual specificity mitogen-activated protein kinase kinase 1 (Homo sapiens) (UniProt Q02750); test: Inhibition of MEK1 at 2 uM
[19] = biological target: Calcium/calmodulin-dependent protein kinase type IV (Homo sapiens) (UniProt Q16566); test: Inhibition of CaMK4 at 2 uM
[20] = biological target: RAF proto-oncogene serine/threonine-protein kinase (Homo sapiens) (UniProt P04049); test: Inhibition of cRAF at 2 uM
[21] = biological target: Hepatocyte growth factor receptor (Homo sapiens) (UniProt P08581); test: Inhibition of Met at 2 uM
[22] = biological target: Proto-oncogene tyrosine-protein kinase Src (Homo sapiens) (UniProt P12931); test: Inhibition of cSRC at 2 uM
[23] = tested on: Rattus norvegicus; test: Decrease in mean arterial blood pressure in spontaneous hypertensive rat model at 3 mg/kg, sc; type: functional, organism-based; set-up: dose 3 mg/kg; conditions: Artery
[24] = biological target: Insulin receptor (Homo sapiens) (UniProt P06213); test: Inhibition of IR at 2 uM
[25] = Inhibition of CK2 at 2 uM
[26] = biological target: Serine/threonine-protein kinase Nek2 (Homo sapiens) (UniProt P51955); test: Inhibition of NEK2 at 2 uM
[27] = tested on: Rattus norvegicus; test: Decrease in mean arterial blood pressure in spontaneous hypertensive rat model at 10 mg/kg, sc; type: functional, organism-based; set-up: dose 10 mg/kg; conditions: Artery
[28] = biological target: Platelet-derived growth factor receptor beta (Homo sapiens) (UniProt P09619); test: Inhibition of PDGFRbeta at 2 uM

Rho-associated protein kinase 1, sequence (Q13464 whole entry): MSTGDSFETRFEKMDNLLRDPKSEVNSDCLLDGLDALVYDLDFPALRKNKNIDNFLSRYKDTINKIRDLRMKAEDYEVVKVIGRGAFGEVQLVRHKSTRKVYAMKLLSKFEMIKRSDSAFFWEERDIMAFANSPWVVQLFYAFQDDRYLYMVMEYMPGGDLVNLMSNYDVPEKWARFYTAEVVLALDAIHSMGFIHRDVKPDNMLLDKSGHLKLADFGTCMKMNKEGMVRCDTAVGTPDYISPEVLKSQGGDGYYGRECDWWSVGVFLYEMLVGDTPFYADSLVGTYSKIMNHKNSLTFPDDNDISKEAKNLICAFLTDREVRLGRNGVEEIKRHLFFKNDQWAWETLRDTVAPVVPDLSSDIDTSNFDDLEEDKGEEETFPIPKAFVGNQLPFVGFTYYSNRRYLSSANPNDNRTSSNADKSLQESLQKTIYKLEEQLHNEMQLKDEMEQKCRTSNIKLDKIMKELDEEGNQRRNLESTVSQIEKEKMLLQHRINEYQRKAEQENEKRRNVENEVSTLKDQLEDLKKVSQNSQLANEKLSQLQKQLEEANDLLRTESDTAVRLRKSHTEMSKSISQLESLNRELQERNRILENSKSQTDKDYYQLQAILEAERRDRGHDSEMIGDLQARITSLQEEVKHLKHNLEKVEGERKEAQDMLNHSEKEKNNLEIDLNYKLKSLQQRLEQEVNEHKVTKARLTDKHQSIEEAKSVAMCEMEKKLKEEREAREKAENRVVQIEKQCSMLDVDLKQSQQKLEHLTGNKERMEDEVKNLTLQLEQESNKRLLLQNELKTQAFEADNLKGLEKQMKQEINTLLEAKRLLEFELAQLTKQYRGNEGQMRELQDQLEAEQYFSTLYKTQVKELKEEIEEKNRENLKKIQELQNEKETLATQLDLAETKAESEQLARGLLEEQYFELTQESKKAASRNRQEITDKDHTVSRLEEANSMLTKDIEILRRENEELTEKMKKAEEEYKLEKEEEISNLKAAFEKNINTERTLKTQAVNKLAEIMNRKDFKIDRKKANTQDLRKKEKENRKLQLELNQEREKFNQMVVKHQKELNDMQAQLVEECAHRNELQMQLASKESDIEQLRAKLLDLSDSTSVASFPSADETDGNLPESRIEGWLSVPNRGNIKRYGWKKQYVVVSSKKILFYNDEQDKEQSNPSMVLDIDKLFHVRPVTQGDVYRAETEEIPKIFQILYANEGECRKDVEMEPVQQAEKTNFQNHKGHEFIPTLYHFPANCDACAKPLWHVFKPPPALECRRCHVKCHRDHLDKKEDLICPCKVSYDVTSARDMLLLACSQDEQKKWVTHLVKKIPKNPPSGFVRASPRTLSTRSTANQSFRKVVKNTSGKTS
BDNF/NT-3 growth factors receptor (Homo sapiens), sequence (Q16620 32-822 limits assumed): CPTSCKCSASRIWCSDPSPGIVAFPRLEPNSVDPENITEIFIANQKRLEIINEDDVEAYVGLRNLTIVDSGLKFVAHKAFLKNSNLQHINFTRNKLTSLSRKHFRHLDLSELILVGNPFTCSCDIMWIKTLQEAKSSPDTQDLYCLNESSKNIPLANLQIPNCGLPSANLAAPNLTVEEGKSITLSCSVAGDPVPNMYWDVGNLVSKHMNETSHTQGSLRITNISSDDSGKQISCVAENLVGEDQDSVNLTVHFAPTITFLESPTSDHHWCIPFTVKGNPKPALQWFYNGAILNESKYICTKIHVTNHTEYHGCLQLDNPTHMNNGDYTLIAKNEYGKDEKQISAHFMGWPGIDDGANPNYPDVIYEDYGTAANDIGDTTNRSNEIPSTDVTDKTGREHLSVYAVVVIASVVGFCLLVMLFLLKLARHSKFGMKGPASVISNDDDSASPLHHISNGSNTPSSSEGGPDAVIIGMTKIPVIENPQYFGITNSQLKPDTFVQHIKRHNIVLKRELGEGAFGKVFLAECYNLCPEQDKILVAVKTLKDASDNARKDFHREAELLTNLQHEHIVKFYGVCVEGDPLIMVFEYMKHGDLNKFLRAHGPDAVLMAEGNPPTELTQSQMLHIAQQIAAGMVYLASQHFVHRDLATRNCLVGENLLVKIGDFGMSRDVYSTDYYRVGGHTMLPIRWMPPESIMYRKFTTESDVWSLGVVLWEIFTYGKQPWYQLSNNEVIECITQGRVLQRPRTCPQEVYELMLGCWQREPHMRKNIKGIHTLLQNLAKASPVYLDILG
Epidermal growth factor receptor (Homo sapiens), sequence (P00533 whole entry): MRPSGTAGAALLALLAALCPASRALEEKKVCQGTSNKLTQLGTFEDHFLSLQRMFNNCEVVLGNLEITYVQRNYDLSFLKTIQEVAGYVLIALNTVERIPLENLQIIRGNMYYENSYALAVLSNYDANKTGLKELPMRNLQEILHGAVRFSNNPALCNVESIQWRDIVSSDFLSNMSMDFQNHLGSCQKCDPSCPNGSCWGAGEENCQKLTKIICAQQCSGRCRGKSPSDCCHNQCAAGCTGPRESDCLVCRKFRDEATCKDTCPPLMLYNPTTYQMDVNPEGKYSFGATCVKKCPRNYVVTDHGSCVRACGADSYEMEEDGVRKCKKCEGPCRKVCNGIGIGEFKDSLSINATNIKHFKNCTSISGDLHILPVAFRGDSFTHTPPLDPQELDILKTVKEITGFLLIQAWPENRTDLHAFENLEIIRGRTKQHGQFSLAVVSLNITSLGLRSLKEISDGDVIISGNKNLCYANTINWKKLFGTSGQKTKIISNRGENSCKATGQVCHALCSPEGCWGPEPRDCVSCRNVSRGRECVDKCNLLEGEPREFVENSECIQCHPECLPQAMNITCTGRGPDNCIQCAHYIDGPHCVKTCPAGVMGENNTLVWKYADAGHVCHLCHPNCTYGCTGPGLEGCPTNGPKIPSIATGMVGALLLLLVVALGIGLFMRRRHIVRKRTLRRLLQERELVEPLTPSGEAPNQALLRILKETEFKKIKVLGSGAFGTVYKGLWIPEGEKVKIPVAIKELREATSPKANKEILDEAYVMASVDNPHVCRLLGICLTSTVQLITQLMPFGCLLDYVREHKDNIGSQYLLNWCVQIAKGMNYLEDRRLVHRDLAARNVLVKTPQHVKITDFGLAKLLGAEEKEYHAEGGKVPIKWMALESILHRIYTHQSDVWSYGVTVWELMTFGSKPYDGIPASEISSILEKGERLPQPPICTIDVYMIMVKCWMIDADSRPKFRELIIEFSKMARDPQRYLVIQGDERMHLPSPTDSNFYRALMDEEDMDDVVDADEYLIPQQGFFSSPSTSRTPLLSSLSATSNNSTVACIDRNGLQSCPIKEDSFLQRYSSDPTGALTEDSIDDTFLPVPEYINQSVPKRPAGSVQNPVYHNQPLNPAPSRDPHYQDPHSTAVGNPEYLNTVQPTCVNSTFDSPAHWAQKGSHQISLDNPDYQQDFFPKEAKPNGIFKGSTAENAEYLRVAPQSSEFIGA
RAF proto-oncogene serine/threonine-protein kinase (Homo sapiens), sequence (P04049 whole entry): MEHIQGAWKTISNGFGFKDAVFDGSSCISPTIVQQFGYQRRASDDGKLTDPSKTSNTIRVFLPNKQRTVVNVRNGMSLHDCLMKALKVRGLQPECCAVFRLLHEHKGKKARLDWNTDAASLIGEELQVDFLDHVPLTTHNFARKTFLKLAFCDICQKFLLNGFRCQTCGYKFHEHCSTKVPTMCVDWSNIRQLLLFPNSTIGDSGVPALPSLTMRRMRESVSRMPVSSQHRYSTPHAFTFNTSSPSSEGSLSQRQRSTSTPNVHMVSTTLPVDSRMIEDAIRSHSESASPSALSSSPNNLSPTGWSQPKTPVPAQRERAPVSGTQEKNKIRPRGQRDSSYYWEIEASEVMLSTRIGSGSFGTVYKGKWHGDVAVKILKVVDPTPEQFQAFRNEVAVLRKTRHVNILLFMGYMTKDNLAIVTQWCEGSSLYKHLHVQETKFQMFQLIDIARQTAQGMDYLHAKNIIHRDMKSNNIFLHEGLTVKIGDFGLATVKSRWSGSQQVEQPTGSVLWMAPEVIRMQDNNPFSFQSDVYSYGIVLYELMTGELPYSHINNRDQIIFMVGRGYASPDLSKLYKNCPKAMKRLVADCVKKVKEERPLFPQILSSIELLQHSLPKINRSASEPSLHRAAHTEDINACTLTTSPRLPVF
Dual specificity mitogen-activated protein kinase kinase 1 (Homo sapiens), sequence (Q02750 whole entry): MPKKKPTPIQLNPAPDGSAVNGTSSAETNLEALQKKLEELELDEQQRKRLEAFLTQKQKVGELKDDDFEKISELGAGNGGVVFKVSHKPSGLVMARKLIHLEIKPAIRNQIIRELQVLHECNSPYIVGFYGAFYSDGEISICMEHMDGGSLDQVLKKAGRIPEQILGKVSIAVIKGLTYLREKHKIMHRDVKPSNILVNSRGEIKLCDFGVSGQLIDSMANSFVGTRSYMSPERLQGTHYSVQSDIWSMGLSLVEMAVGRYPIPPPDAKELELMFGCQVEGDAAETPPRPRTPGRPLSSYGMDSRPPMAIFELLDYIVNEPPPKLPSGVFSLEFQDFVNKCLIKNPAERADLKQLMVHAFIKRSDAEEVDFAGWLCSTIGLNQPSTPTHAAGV
Serine/threonine-protein kinase Chk1 (Homo sapiens), sequence (O14757 whole entry): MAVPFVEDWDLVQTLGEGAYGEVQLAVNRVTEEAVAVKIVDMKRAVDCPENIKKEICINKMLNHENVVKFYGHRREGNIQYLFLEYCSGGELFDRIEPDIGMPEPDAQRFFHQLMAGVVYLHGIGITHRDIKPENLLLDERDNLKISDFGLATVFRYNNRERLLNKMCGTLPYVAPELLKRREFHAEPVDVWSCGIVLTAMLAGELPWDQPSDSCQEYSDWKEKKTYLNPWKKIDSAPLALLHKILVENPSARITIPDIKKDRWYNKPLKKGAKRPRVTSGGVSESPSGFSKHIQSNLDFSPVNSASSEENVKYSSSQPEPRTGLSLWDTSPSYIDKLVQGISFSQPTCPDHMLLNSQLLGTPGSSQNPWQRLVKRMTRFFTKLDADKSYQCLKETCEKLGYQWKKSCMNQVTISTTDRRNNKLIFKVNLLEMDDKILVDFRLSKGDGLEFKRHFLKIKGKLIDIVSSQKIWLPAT

With `c1ccc2c(c1)CC(Nc1nc(Nc3ccncc3)nc(N3CCCNCC3)n1)C2` as the compound, how does the pIC50 [1] read?
The pIC50 was 7.96.

With `C[C@@H]1CNCCN1c1nc(Nc2ccncc2)nc(NC2Cc3ccccc3C2)n1` as the compound, how does the pIC50 [1] read?
The pIC50 was 6.93.

With `c1ccc(Nc2nc(NC3Cc4ccccc4C3)nc(N3CCNCC3)n2)nc1` as the compound, how does the pIC50 [1] read?
Its pIC50 is 6.00.

With `c1ccc(CCNc2nc(Nc3ccncc3)nc(N3CCNCC3)n2)cc1` as the compound, how does the pIC50 [1] read?
The pIC50 was 6.49.

With `C[C@H]1CN(c2nc(Nc3ccncc3)nc(NC3Cc4ccccc4C3)n2)CCN1` as the compound, how does the pIC50 [1] read?
The pIC50 was 6.87.

With `c1ccc2c(c1)CC(Nc1nc(Nc3ccncc3)cc(N3CCNCC3)n1)C2` as the compound, how does the pIC50 [1] read?
The pIC50 was 5.92.

With `c1cc(Nc2nc(NC3CCCC3)nc(N3CCNCC3)n2)ccn1` as the compound, how does the pIC50 [1] read?
Its pIC50 is 6.05.

With `c1ccc2c(c1)CCC2Nc1nc(Nc2ccncc2)nc(N2CCNCC2)n1` (stereo not drawn) as the compound, how does the pIC50 [1] read?
The pIC50 was 6.73.

With `c1ccc2c(c1)CC(Nc1cc(Nc3ccncc3)nc(N3CCNCC3)n1)C2` as the compound, how does the pIC50 [1] read?
The pIC50 was 8.70.

Which Activity [2] does the source give for `C[C@@H](N)[C@H]1CC[C@H](C(=O)Nc2ccncc2)CC1` here?
The Activity was “Active”.

With `CN1CCN(c2nc(Nc3ccncc3)nc(NC3Cc4ccccc4C3)n2)CC1` as the compound, how does the pIC50 [1] read?
The pIC50 was 6.52.

With `C[C@H]1CNCCN1c1nc(Nc2ccncc2)nc(NC2Cc3ccccc3C2)n1` as the compound, how does the pIC50 [1] read?
The pIC50 was 7.06.

With `c1ccc2c(c1)CC(Oc1nc(Nc3ccncc3)nc(N3CCNCC3)n1)C2` as the compound, how does the pIC50 [1] read?
Its pIC50 is 8.10.

With `C[C@@H]1CN(c2nc(Nc3ccncc3)nc(NC3Cc4ccccc4C3)n2)CCN1` as the compound, how does the pIC50 [1] read?
The pIC50 was 8.10.

With `c1ccc2c(c1)CC(Nc1nc(Nc3ccncc3)nc(N3CCCCC3)n1)C2` as the compound, how does the pIC50 [1] read?
The pIC50 was 5.08.

For `c1ccc2c(c1)CC(Nc1nc(Nc3ccncc3)nc(N3CCNCC3)n1)C2`, which inhibition [3] is on record?
Its inhibition is < 50%.

And the inhibition [4]?
The inhibition was < 50%.

What about the inhibition [5] of the same compound?
The inhibition was < 50%.

And the inhibition [6]?
The inhibition was < 50%.

What about the inhibition [7] of the same compound?
Its inhibition is < 50%.

And the inhibition [8]?
The inhibition was < 50%.

What about the inhibition [9] of the same compound?
The inhibition was < 50%.

And the inhibition [10]?
The inhibition was < 50%.

What about the inhibition [11] of the same compound?
The inhibition was < 50%.

And the inhibition [12]?
Its inhibition is < 50%.

What about the inhibition [13] of the same compound?
The inhibition was < 50%.

What about the inhibition [14] of the same compound?
Its inhibition is < 50%.

What about the inhibition [15] of the same compound?
The inhibition was < 50%.

And the inhibition [16]?
Its inhibition is < 50%.

And the inhibition [17]?
Its inhibition is < 50%.

What about the inhibition [18] of the same compound?
Its inhibition is < 50%.

And the inhibition [19]?
Its inhibition is < 50%.

And the inhibition [20]?
The inhibition was < 50%.

What about the pIC50 [1] of the same compound?
The pIC50 was 8.22.

And the inhibition [21]?
Its inhibition is < 50%.

What about the inhibition [22] of the same compound?
Its inhibition is < 50%.

And the Activity [23]?
Its Activity is “Active”.

And the inhibition [24]?
The inhibition was < 50%.

What about the inhibition [25] of the same compound?
The inhibition was < 50%.

What about the inhibition [26] of the same compound?
The inhibition was < 50%.

And the Activity [27]?
The Activity was “Active”.

What about the inhibition [28] of the same compound?
The inhibition was < 50%.

With `c1ccc(Nc2nc(NC3Cc4ccccc4C3)nc(N3CCNCC3)n2)cc1` as the compound, how does the pIC50 [1] read?
The pIC50 was 5.13.

With `CNCCN(C)c1nc(Nc2ccncc2)nc(NC2Cc3ccccc3C2)n1` as the compound, how does the pIC50 [1] read?
The pIC50 was 7.09.

With `c1ccc(CNc2nc(Nc3ccncc3)nc(N3CCNCC3)n2)cc1` as the compound, how does the pIC50 [1] read?
The pIC50 was 6.40.

With `c1ccc2c(c1)CC(Nc1cc(N3CCNCC3)nc(Nc3ccncc3)n1)C2` as the compound, how does the pIC50 [1] read?
Its pIC50 is 7.85.

With `c1cncc(Nc2nc(NC3Cc4ccccc4C3)nc(N3CCNCC3)n2)c1` as the compound, how does the pIC50 [1] read?
Its pIC50 is 5.08.

With `c1ccc2c(c1)CCC(Nc1nc(Nc3ccncc3)nc(N3CCNCC3)n1)C2` (stereo not drawn) as the compound, how does the pIC50 [1] read?
Its pIC50 is 7.64.
